System: IL-6
Test: IL-6 inhibition in LPS-stimulated THP-1 monocytes (HTRF)
Assay type: cell-based, human
Details: Homo sapiens, THP-1 cells; for EC50: 500 ng/mL LPS, 22 h, HTRF IL-6 readout, 10-point dose-response from 10 μM; for inhibition at 10 µM: LPS stimulated, given only where EC50 >10 μM, top concentration 10 μM, read-out: percentage in parentheses beside EC50 >10 (IL-6 inhibition)
Experimental: Human monocyte cell line (THP-1 cells; Catalog # TIB-202, ATCC, Manassas, Va.) were cultured in Roswell Park Memorial Institute (RPMI) 1640 Medium (Catalog #21870-100, Buffalo, N.Y.) with 1% L-glutamine, 1% HEPES, 1% Sodium Pyruvate, 2% Sodium Bicarbonate supplemented with 100 units/mL penicillin, 50 μg/mL streptomycin, 2-mercaptoethanol (0.05 mM) [basal medium] and 10% fetal bovine serum (Catalog #16140089, Life Technologies, Carlsbad, Calif.) at 37° C. and 5% CO2.
THP-1 cells were cultured in basal media with 1% FBS for 24 hours before the start of the assay. Each compound was dissolved in DMSO as a 10 mM stock and used to prepare compound source plates. Serial dilution (1:3, 10-point dose-response curves starting from 10 μM) and compound transfer was performed using the ECHO 550 (Labcyte, Sunnyvale, Calif.) into 384-well white low volume assay plates (Greiner Bio-One) with appropriate DMSO backfill for a final DMSO concentration of 0.1%. THP-1 cells were plated at 5000 cells/well in the 384-well plates and incubated at 37° C. for 2 h. 500 ng/mL of LPS was added after 2 hours and cells were incubated for another 22 hours at 37° C. Plates were spun in a centrifuge for 1 minute at […] and a mixture of anti-IL6 XL665, and anti-IL6 Cryptate diluted in reconstitution buffer (Cisbio Inc.) was added to each well. Following incubation for 3 hrs at room temperature, Homogeneous Time-Resolved Fluorescence (HTRF) was measured using the Envision (Perkin Elmer) at 665 nm and […]. The ratio of fluorescence at 665 nm to 620 nm was used as a readout for IL6 quantification. All samples were processed in duplicate. Readings were normalized to DMSO treated cells and normalized activities were utilized for EC50 calculations using the dose-response log (inhibitor) vs. response variable slope (four parameters) nonlinear regression feature available in GraphPad Prism 5.0 (or Dotmatics). For EC50 of >10 μM, the percent inhibition at 10 μM is provided.

Row | EC50 [µM] | Structure (SMILES) | inhibition at 10 µM [%]
1 | 0.015 | Fc1cccc(-c2cccc3[nH]c(-c4n[nH]c5ncc(-c6cccnc6)cc45)cc23)c1 [Compound 2, 3-(4-(3-Fluorophenyl)-1H-indol-2-yl)-5-(pyridin-3-yl)-1H-pyrazolo[3,4-b]pyridine] | –
2 | > 10 | CCCC(=O)Nc1cncc(-c2cnc3[nH]nc(-c4cc5c(-c6cccc(F)c6)cccc5[nH]4)c3c2)c1 [Compound 14, N-(5-(3-(4-(3-Fluorophenyl)-1H-indol-2-yl)-1H-pyrazolo[3,4-b]pyridin-5-yl)pyridin-3-yl)butyramide] | 20.3
3 | > 10 | Fc1cccc(-c2cccc3[nH]c(-c4n[nH]c5ncc(-c6ccncc6)cc45)cc23)c1 [Compound 15, 3-(4-(3-Fluorophenyl)-1H-indol-2-yl)-5-(pyridin-4-yl)-1H-pyrazolo[3,4-b]pyridine] | 55.9
4 | > 10 | O=C(Nc1cncc(-c2cnc3[nH]nc(-c4cc5c(-c6cccc(F)c6)cccc5[nH]4)c3c2)c1)C1CCCCC1 [Compound 19, N-(5-(3-(4-(3-Fluorophenyl)-1H-indol-2-yl)-1H-pyrazolo[3,4-b]pyridin-5-yl)pyridin-3-yl)cyclohexanecarboxamide] | 19.2
5 | > 10 | Cc1ccncc1-c1cnc2[nH]nc(-c3cc4c(-c5ccc(F)cc5)cccc4[nH]3)c2c1 [Compound 27, 3-(4-(4-Fluorophenyl)-1H-indol-2-yl)-5-(4-methylpyridin-3-yl)-1H-pyrazolo[3,4-b]pyridine] | 41.7
6 | > 10 | CC(C)(C)C(=O)Nc1cncc(-c2cnc3[nH]nc(-c4cc5c(-c6ccc(F)cc6)cccc5[nH]4)c3c2)c1 [Compound 30, N-(5-(3-(4-(4-Fluorophenyl)-1H-indol-2-yl)-1H-pyrazolo[3,4-b]pyridin-5-yl)pyridin-3-yl)pivalamide] | 42.8
7 | > 10 | O=C(Nc1cncc(-c2cnc3[nH]nc(-c4cc5c(-c6ccc(F)cc6)cccc5[nH]4)c3c2)c1)c1ccccc1 [Compound 32, N-(5-(3-(4-(4-Fluorophenyl)-1H-indol-2-yl)-1H-pyrazolo[3,4-b]pyridin-5-yl)pyridin-3-yl)benzamide] | 17.7
8 | > 10 | O=C(Nc1cncc(-c2cnc3[nH]nc(-c4cc5c(-c6ccc(F)cc6)cccc5[nH]4)c3c2)c1)C1CCC1 [Compound 41, N-(5-(3-(4-(4-Fluorophenyl)-1H-indol-2-yl)-1H-pyrazolo[3,4-b]pyridin-5-yl)pyridin-3-yl)cyclobutanecarboxamide] | 10.7
9 | 4.64 | CC(C)(C)CC(=O)Nc1cncc(-c2cnc3[nH]nc(-c4cc5c(-c6ccccc6F)cccc5[nH]4)c3c2)c1 [Compound 61, N-(5-(3-(4-(2-Fluorophenyl)-1H-indol-2-yl)-1H-pyrazolo[3,4-b]pyridin-5-yl)pyridin-3-yl)-3,3-dimethylbutanamide] | –
10 | 9.78 | O=C(Nc1cncc(-c2cnc3[nH]nc(-c4cc5c(-c6ccccc6F)cccc5[nH]4)c3c2)c1)C1CCCC1 [Compound 66, N-(5-(3-(4-(2-Fluorophenyl)-1H-indol-2-yl)-1H-pyrazolo[3,4-b]pyridin-5-yl)pyridin-3-yl)cyclopentanecarboxamide] | –
11 | 0.062 | Cc1ccncc1-c1cnc2[nH]nc(-c3cc4c(-c5ccncc5)cccc4[nH]3)c2c1 [Compound 99, 5-(4-Methylpyridin-3-yl)-3-(4-(pyridin-4-yl)-1H-indol-2-yl)-1H-pyrazolo[3,4-b]pyridine] | –
12 | 4.17 | c1cc(-c2ccncc2)c2cc(-c3n[nH]c4ncc(-c5ccncc5)cc34)[nH]c2c1 [Compound 111, 5-(Pyridin-4-yl)-3-(4-(pyridin-4-yl)-1H-indol-2-yl)-1H-pyrazolo[3,4-b]pyridine] | –
13 | 0.594 | O=C(Nc1cncc(-c2cnc3[nH]nc(-c4cc5c(-c6ccncc6)cccc5[nH]4)c3c2)c1)C1CCCCC1 [Compound 115, N-(5-(3-(4-(Pyridin-4-yl)-1H-indol-2-yl)-1H-pyrazolo[3,4-b]pyridin-5-yl)pyridin-3-yl)cyclohexanecarboxamide] | –
14 | > 10 | c1ccc(CNCc2cncc(-c3cnc4[nH]nc(-c5cc6c(-c7ccncc7)cccc6[nH]5)c4c3)c2)cc1 [Compound 116, N-Benzyl-1-(5-(3-(4-(pyridin-4-yl)-1H-indol-2-yl)-1H-pyrazolo[3,4-b]pyridin-5-yl)pyridin-3-yl)methanamine] | 41.7
15 | 0.103 | c1ccc(-c2cnc3[nH]nc(-c4cc5c(-c6ccncc6)cccc5[nH]4)c3c2)nc1 [Compound 120, 5-(Pyridin-2-yl)-3-(4-(pyridin-4-yl)-1H-indol-2-yl)-1H-pyrazolo[3,4-b]pyridine] | –
16 | > 10 | O=C(Nc1cncc(-c2cnc3[nH]nc(-c4cc5c(N6CCCCC6)cccc5[nH]4)c3c2)c1)c1ccccc1 [Compound 155, N-(5-(3-(4-(Piperidin-1-yl)-1H-indol-2-yl)-1H-pyrazolo[3,4-b]pyridin-5-yl)pyridin-3-yl)benzamide] | 21.8
17 | > 10 | CCCCC(=O)Nc1cncc(-c2cnc3[nH]nc(-c4cc5c(N6CCCCC6)cccc5[nH]4)c3c2)c1 [Compound 163, N-(5-(3-(4-(Piperidin-1-yl)-1H-indol-2-yl)-1H-pyrazolo[3,4-b]pyridin-5-yl)pyridin-3-yl)pentanamide] | 43.2
18 | > 10 | CC(C)CC(=O)Nc1cncc(-c2cnc3[nH]nc(-c4cc5c(N6CCN(C)CC6)cccc5[nH]4)c3c2)c1 [Compound 202, 3-Methyl-N-(5-(3-(4-(4-methylpiperazin-1-yl)-1H-indol-2-yl)-1H-pyrazolo[3,4-b]pyridin-5-yl)pyridin-3-yl)butanamide] | 0
19 | 1.21 | CC(C)C(=O)Nc1cncc(-c2cnc3[nH]nc(-c4cc5c(N6CCN(C)CC6)cccc5[nH]4)c3c2)c1 [Compound 209, N-(5-(3-(4-(4-Methylpiperazin-1-yl)-1H-indol-2-yl)-1H-pyrazolo[3,4-b]pyridin-5-yl)pyridin-3-yl)isobutyramide] | –
20 | 0.106 | CN1CCN(c2cccc3[nH]c(-c4n[nH]c5ncc(-c6ccncc6)cc45)cc23)CC1 [Compound 218, 3-(4-(4-Methylpiperazin-1-yl)-1H-indol-2-yl)-5-(pyridin-4-yl)-1H-pyrazolo[3,4-b]pyridine] | –
21 | 3.9 | CN1CCN(c2cccc3[nH]c(-c4n[nH]c5ncc(-c6cncnc6)cc45)cc23)CC1 [Compound 227, 3-(4-(4-Methylpiperazin-1-yl)-1H-indol-2-yl)-5-(pyrimidin-5-yl)-1H-pyrazolo[3,4-b]pyridine] | –
22 | 0.019 | c1cncc(-c2cnc3[nH]nc(-c4cc5ccccc5[nH]4)c3c2)c1 [Compound 231, 3-(1H-Indol-2-yl)-5-(pyridin-3-yl)-1H-pyrazolo[3,4-b]pyridine] | –
23 | 0.303 | CC(C)(C)CC(=O)Nc1cncc(-c2cnc3[nH]nc(-c4cc5ccccc5[nH]4)c3c2)c1 [Compound 242, N-(5-(3-(1H-Indol-2-yl)-1H-pyrazolo[3,4-b]pyridin-5-yl)pyridin-3-yl)-3,3-dimethylbutanamide] | –
24 | > 10 | O=C(Nc1cncc(-c2cnc3[nH]nc(-c4cc5ccccc5[nH]4)c3c2)c1)C1CCCCC1 [Compound 249, N-(5-(3-(1H-Indol-2-yl)-1H-pyrazolo[3,4-b]pyridin-5-yl)pyridin-3-yl) cyclohexanecarboxamide] | 14.2

Source: US20180214428A1, “3-(1H-INDOL-2-YL)-1H-PYRAZOLO[3,4-B]PYRIDINES AND THERAPEUTIC USES THEREOF” (Samumed, LLC, priority 2015, published 2018)
